Assay results published in patent US7888464B2, “Hepatitis C virus inhibitors” (Bristol-Myers Squibb Company, priority 2006, dated 2011).

Columns and labels:
[1] = target: T1, HCV NS3/4A protease complex, BMS strain (genotype 1a) (UniProt P27958, species not given/STRAIN_BMS); assay: FRET peptide assay to monitor HCV NS3/4A proteolytic activity (BMS strain); assay type: biochemical; conditions: BMS strain; read-out: IC50 against the NS3/4A BMS strain in the enzyme assay
T1 construct: "DNA encoding the recombinant HCV NS3/4A protease complex (amino acids 1027 to 1711) for these strains" (said of H77 and J4L6S, not expressly of BMS); given for the H77/J4L6S constructs only
Description: HCV NS3 protease complexes, derived from the BMS strain, H77 strain or J4L6S strain, were generated, as described below. These purified recombinant proteins were generated for use in a homogeneous assay (see below) to provide an indication of how effective compounds of the present disclosure would be in inhibiting HCV NS3 proteolytic activity.
Serum from an HCV-infected patient was obtained from Dr. T. Wright, San Francisco Hospital. An engineered full-length cDNA (compliment deoxyribonucleic acid) template of the HCV genome (BMS strain) was constructed from DNA fragments obtained by reverse transcription-PCR(RT-PCR) of serum RNA (ribonucleic acid) and using primers selected on the basis of homology between other genotype la strains. From the determination of the entire genome sequence, a genotype la was assigned to the HCV isolate according to the classification of Simmonds et al. (See P Simmonds, K A Rose, S Graham, S W Chan, F McOmish, B C Dow, E A Follett, P L Yap and H Marsden, J. Clin. Microbiol., 31(6), 1493-1503 (1993)). […] The infectious clones, H77 (1a genotype) and J4L6S (1b genotype) were obtained from R. Purcell (NIH) and the sequences are published in Genbank (AAB67036, see Yanagi, M., Purcell, R. H., Emerson, S. U. and Bukh, J. Proc. Natl. Acad. Sci. U.S.A. 94(16), 8738-8743 (1997); AF054247, see Yanagi, M., St Claire, M., Shapiro, M., Emerson, S. U., Purcell, R. H. and Bukh, J, Virology 244 (1), 161-172. (1998)).
The H77 and J4L6S strains were used for production of recombinant NS3/4A protease complexes. DNA encoding the recombinant HCV NS3/4A protease complex (amino acids 1027 to 1711) for these strains were manipulated as described by P. Gallinari et al. (see Gallinari P, Paolini C, Brennan D, Nardi C, Steinkuhler C, De Francesco R. Biochemistry. 38(17):5620-32, (1999)). Briefly, a three-lysine solubilizing tail was added at the 3′-end of the NS4A coding region. The cysteine in the P1 position of the NS4A-NS4B cleavage site (amino acid 1711) was changed to a glycine to avoid the proteolytic cleavage of the lysine tag. Furthermore, a cysteine to serine mutation was introduced by PCR at amino acid position 1454 to prevent the autolytic cleavage in the NS3 helicase domain. The variant DNA fragment was cloned in the pET21b bacterial expression vector (Novagen) and the NS3/4A complex was expressed in Escherichia. coli strain BL21 (DE3) (Invitrogen) following the protocol described by P. Gallinari et al. (see Gallinari P, Brennan D, Nardi C, Brunetti M, Tomei L, Steinkuhler C, De Francesco R., J. Virol. 72(8):6758-69 (1998)) with modifications. Briefly, the NS3/4A protease complex expression was induced with 0.5 millimolar (mM) Isopropyl β-D-1-thiogalactopyranoside (IPTG) for 22 hours (h) at 20° C. A typical fermentation (1 Liter (L)) yielded approximately 10 grams (g) of wet cell paste. The cells were resuspended in lysis buffer (10 mL/g) consisting of 25 mM N-(2-Hydroxyethyl)piperazine-N′-(2-Ethane Sulfonic acid) (HEPES), pH 7.5, 20% glycerol, 500 mM Sodium Chloride (NaCl), 0.5% Triton X-100, 1 microgram/milliliter (“μg/mL”) lysozyme, 5 mM Magnesium Chloride (MgCl2), 1 μg/ml DnaseI, 5 mM β-Mercaptoethanol (βME), Protease inhibitor-Ethylenediamine Tetraacetic acid (EDTA) free (Roche), homogenized and incubated for 20 minutes (min) at 4° C. The homogenate was sonicated and clarified by ultra-centrifugation at 235000 g for 1 hour (h) at 4° C. Imidazole was added to the supernatant to a final concentration of 15 mM and the pH adjusted to 8.0. The crude protein extract was loaded on a Nickel-Nitrilotriacetic acid (Ni-NTA) column pre-equilibrated with buffer B (25 mM HEPES, pH 8.0, 20% glycerol, 500 mM NaCl, 0.5% Triton X-100, 15 mM imidazole, 5 mM βME). The sample was loaded at a flow rate of 1 mL/min. The column was washed with 15 column volumes of buffer C (same as buffer B except with 0.2% Triton X-100). The protein was eluted with 5 column volumes of buffer D (same as buffer C except with 200 mM Imidazole). […]

[2] = target: T2, porcine pancreatic elastase (PPE) (Sus scrofa, UniProt P00772); assay: Specificity assay, pancreatic elastase; assay type: biochemical; conditions: read-out: PPE activity in the specificity assays
T2 construct: purchased Sigma, EMDbiosciences
Protocol: The specificities of compounds of the present disclosure were determined against a variety of serine proteases: human neutrophil elastase (HNE), porcine pancreatic elastase (PPE) and human pancreatic chymotrypsin and one cysteine protease: human liver cathepsin B. In all cases a 96-well plate format protocol using a fluorometric Amino-Methyl-Coumarin (AMC) substrate specific for each enzyme was used as described previously (PCT Patent Application No. WO 00/09543) with some modifications to the serine protease assays. All enzymes were purchased from Sigma, EMDbiosciences while the substrates were from Bachem, Sigma and EMDbiosciences.
Compound concentrations varied from 100 to 0.4 μM depending on their potency. The enzyme assays were each initiated by addition of substrate to enzyme-inhibitor pre-incubated for 10 min at room temperature and hydrolysis to 15% conversion as measured on cytofluor.
50 mM Tris-HCl, pH 8.0, 50 mM NaCl, 0.1 mM EDTA, 3% DMSO, 0.02% Tween-20, 5 μM succ-AAPV-AMC and 20 nM HNE or 8 nM PPE;
The percentage of inhibition was calculated using the formula: [1−((UVinh−UVblank)/(UVctl−UVblank))]×100
A non-linear curve fit was applied to the inhibition-concentration data, and the 50% effective concentration (IC50) was calculated by the use of Excel XLfit software.

T2 sequence (P00772 27-266): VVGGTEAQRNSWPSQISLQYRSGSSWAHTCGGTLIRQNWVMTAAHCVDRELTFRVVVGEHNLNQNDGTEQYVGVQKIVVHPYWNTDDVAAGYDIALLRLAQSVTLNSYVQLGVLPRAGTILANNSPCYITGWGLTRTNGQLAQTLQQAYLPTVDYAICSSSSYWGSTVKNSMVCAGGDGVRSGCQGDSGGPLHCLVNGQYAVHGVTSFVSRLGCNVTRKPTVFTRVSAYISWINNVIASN
T1 sequence (P27958 1027-1657, stated change not applied, one chain of several): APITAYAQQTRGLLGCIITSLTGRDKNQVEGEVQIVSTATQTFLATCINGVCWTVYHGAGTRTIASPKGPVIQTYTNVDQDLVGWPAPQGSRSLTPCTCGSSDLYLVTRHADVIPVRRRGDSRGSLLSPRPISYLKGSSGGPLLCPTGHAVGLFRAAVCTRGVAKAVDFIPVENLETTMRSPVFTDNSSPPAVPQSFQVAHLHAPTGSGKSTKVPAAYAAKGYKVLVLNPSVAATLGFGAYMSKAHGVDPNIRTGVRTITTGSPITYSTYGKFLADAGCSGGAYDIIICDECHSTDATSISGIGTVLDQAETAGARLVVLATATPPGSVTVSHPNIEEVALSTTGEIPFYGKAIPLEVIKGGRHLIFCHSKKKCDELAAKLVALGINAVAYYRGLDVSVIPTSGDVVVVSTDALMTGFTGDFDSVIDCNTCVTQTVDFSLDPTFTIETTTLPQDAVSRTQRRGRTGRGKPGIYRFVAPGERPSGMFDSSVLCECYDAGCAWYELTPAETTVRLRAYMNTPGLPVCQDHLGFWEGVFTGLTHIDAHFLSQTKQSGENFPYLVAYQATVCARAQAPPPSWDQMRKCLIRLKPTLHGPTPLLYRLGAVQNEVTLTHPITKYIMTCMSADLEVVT

## C=C[C@@H]1C[C@]1(NC(=O)[C@@H]1C[C@@](O)(c2ccc(-c3ccccc3)cc2)CN1C(=O)[C@@H](NC(=O)OC(C)(C)C)C(C)(C)C)C(=O)NS(=O)(=O)C1CC1 [Compound 3]
[1]
  IC50: 4.4 nM
[2]
  IC50: > 100000 nM
